Assay results as given in patent publication US20240174618A1, “SUBSTITUTED (2-HETEROARYLOXYPHENYL)SULFONATES, SALTS THEREOF AND THEIR USE AS HERBICIDAL AGENTS” (Bayer Aktiengesellschaft, priority 2021, published 2024).

How the values were obtained:
Format in all cases: in vivo
[1] = system: Echinochloa crus-galli (ECHCG); assay: B. Herbicidal post-emergence efficacy, ECHCG; conditions: 1280 g/ha, rated visually after about 3 weeks
Description: (§1) Seeds of mono- and dicotyledonous weed plants were placed in plastic pots in sandy loam soil (doubly sown with in each case one species of mono- or dicotyledonous weed plants per pot), covered with soil and cultivated in a greenhouse under controlled growth conditions. 2 to 3 weeks after sowing, the test plants were treated at the one-leaf stage. The compounds of the invention, formulated in the form of wettable powders (WP) or as emulsion concentrates (EC), were applied onto the green parts of the plants as aqueous suspension or emulsion with addition of 0.5% additive at a water application rate of 600 liters per hectare (converted). After the test plants had been kept in the greenhouse under optimum growth conditions for about 3 weeks, the activity of the preparations was rated visually in comparison to untreated controls.
(§2) For example, • 100% efficacy=plants have died, • 0% efficacy=like untreated control plants
(§3) Tables B1a to B12c below show the effects of selected inventive compounds of the general formula (I) according to table 1 on various harmful plants at an application rate corresponding to 1280 g/ha or less, which were obtained by the experimental procedure mentioned above.

Poa annua (POAAN) [2] = assay: A. Herbicidal pre-emergence efficacy, POAAN; conditions: dosage 1280 g/ha
Description: (§4) Seeds of mono- and dicotyledonous weed plants were placed in plastic pots in sandy loam soil (doubly sown with one species each of mono- or dicotyledonous weed plants per pot) and covered with soil. The compounds of the invention, formulated in the form of wettable powders (WP) or as emulsion concentrates (EC), were then applied onto the surface of the covering soil as aqueous suspension or emulsion with addition of 0.5% additive at a water application rate of 600 liters per hectare (converted). After the treatment, the pots were placed in a greenhouse and kept under good growth conditions for the test plants. After about 3 weeks, the efficacy of the preparations was scored visually in comparison with untreated controls as percentages.
(§5) For example, • 100% efficacy=plants have died, • 0% efficacy=like untreated control plants.
(§6) Tables A1a to A12c below show the effects of selected compounds of the general formula (I) according to table 1 on various harmful plants at an application rate corresponding to 1280 g/ha or less, which were obtained by the experimental procedure mentioned above.

[3] = system: Echinochloa crus-galli (ECHCG); assay: A. Herbicidal pre-emergence efficacy, ECHCG; conditions: scored visually after about 3 weeks vs untreated controls
Description: as §4, §5, §6

[4] = system: Amaranthus retroflexus (AMARE); assay: B. Herbicidal post-emergence efficacy, AMARE
Description: as §1, §2, §3

Stellaria media (STEME) [5] = assay: B. Herbicidal post-emergence efficacy, STEME
Description: as §1, §2, §3

Setaria viridis (SETVI) = assay: A. Herbicidal pre-emergence efficacy, SETVI
Description: as §4, §5, §6

Poa annua (POAAN) [6] = assay: B. Herbicidal post-emergence efficacy, POAAN; conditions: 1280 g/ha
Description: as §1, §2, §3

[7] = system: Abutilon theophrasti (ABUTH); assay: A. Herbicidal pre-emergence efficacy, ABUTH; conditions: scored visually after about 3 weeks vs untreated controls
Description: as §4, §5, §6

[8] = system: Amaranthus retroflexus (AMARE); assay: A. Herbicidal pre-emergence efficacy, AMARE
Description: as §4, §5, §6

Kochia scoparia (KCHSC) [9] = assay: B. Herbicidal post-emergence efficacy, KCHSC; conditions: for Post-emergence efficacy against KCHSC in %: rated visually after about 3 weeks; for Post-emergence efficacy against KCHSC: 1280 g/ha
Description: as §1, §2, §3

[10] = system: Abutilon theophrasti (ABUTH); assay: B. Herbicidal post-emergence efficacy, ABUTH; conditions: rated visually after about 3 weeks
Description: as §1, §2, §3

Kochia scoparia (KCHSC) [11] = assay: A. Herbicidal pre-emergence efficacy, KCHSC; conditions: pre-emergence
Description: as §4, §5, §6

[12] = system: Digitaria sanguinalis (DIGSA); assay: A. Herbicidal pre-emergence efficacy, DIGSA; conditions: scored visually after about 3 weeks vs untreated controls
Description: as §4, §5, §6

Stellaria media (STEME) [13] = assay: A. Herbicidal pre-emergence efficacy, STEME
Description: as §4, §5, §6

Veronica persica (VERPE) [14] = assay: B. Herbicidal post-emergence efficacy, VERPE
Description: as §1, §2, §3

Veronica persica (VERPE) [15] = assay: A. Herbicidal pre-emergence efficacy, VERPE; conditions: 1280 g/ha
Description: as §4, §5, §6

Lolium rigidum (LOLRI) = assay: A. Herbicidal pre-emergence efficacy, LOLRI; conditions: dosage 1280 g/ha
Description: as §4, §5, §6

Structure (SMILES) | Pre-emergence efficacy against ECHCG ([3]; 1280 g/ha) [%] | Post-emergence efficacy against AMARE ([4]; 320 g/ha) [%] | Post-emergence efficacy against AMARE ([4]; 1280 g/ha) [%] | Post-emergence efficacy against STEME (Stellaria media (STEME) [5]; 320 g/ha) [%] | Post-emergence efficacy against STEME (Stellaria media (STEME) [5]; 1280 g/ha) [%] | Pre-emergence efficacy against SETVI (Setaria viridis (SETVI); dosage 1280 g/ha) [%] | Post-emergence efficacy against POAAN (Poa annua (POAAN) [6]) [%] | Pre-emergence efficacy against ABUTH ([7]; 1280 g/ha) [%] | Pre-emergence efficacy against AMARE in % ([8]; 80 g/ha) [%] | Pre-emergence efficacy against AMARE in % ([8]; 320 g/ha) [%] | Pre-emergence efficacy against AMARE in % ([8]; 1280 g/ha) [%] | Post-emergence efficacy against KCHSC in % (Kochia scoparia (KCHSC) [9]; 320 g/ha) [%] | Post-emergence efficacy against KCHSC (Kochia scoparia (KCHSC) [9]) [%] | Post-emergence efficacy against ABUTH in % ([10]; 320 g/ha) [%] | Post-emergence efficacy against ABUTH in % ([10]; 1280 g/ha) [%] | Pre-emergence efficacy against KCHSC (Kochia scoparia (KCHSC) [11]; dosage 1280 g/ha) [%] | Pre-emergence efficacy against DIGSA ([12]; 1280 g/ha) [%] | Pre-emergence efficacy against STEME (Stellaria media (STEME) [13]; dosage 1280 g/ha) [%] | Post-emergence efficacy against VERPE (Veronica persica (VERPE) [14]; 80 g/ha) [%] | Post-emergence efficacy against VERPE (Veronica persica (VERPE) [14]; 320 g/ha) [%] | further results
O=S(=O)(Oc1ccccc1Oc1ncc(Cl)cn1)C1CCCC1 [Example I-19] | 90 | 90 | 100 | 100 | 100 | 100 | 90 | 100 | 90 | 100 | 100 | 90 | 100 | 90 | 90 | 90 | 100 | 100 | 90 | 90 | Post-emergence efficacy against ECHCG in % [1]: 90%; Pre-emergence efficacy against POAAN (Poa annua (POAAN) [2]): 90%; Post-emergence efficacy against STEME (Stellaria media (STEME) [5]; 80 g/ha): 90%; Pre-emergence efficacy against SETVI (Setaria viridis (SETVI); dosage 320 g/ha): 90%; Pre-emergence efficacy against ABUTH ([7]; 320 g/ha): 90%; Pre-emergence efficacy against KCHSC (Kochia scoparia (KCHSC) [11]; dosage 320 g/ha): 90%; Pre-emergence efficacy against DIGSA ([12]; 80 g/ha): 100%; Pre-emergence efficacy against DIGSA ([12]; 320 g/ha): 100%; Pre-emergence efficacy against STEME (Stellaria media (STEME) [13]; dosage 320 g/ha): 100%; Post-emergence efficacy against VERPE (Veronica persica (VERPE) [14]; 1280 g/ha): 100%
CCC(C)S(=O)(=O)Oc1ccccc1Oc1ncc(Cl)cn1 (centres unmarked) [Example I-22] | 90 | 90 | 100 | 90 | 90 | 100 | 90 | 100 | 90 | 90 | 100 | 90 | 100 | 90 | 100 | 100 | 100 | 100 | 90 | 100 | Pre-emergence efficacy against POAAN (Poa annua (POAAN) [2]): 90%; Pre-emergence efficacy against VERPE in % (Veronica persica (VERPE) [15]): 90%; Pre-emergence efficacy against ECHCG ([3]; 320 g/ha): 90%; Post-emergence efficacy against STEME (Stellaria media (STEME) [5]; 80 g/ha): 90%; Pre-emergence efficacy against SETVI (Setaria viridis (SETVI); dosage 320 g/ha): 90%; Pre-emergence efficacy against ABUTH ([7]; 320 g/ha): 100%; Pre-emergence efficacy against LOLRI (Lolium rigidum (LOLRI)): 90%; Post-emergence efficacy against KCHSC in % (Kochia scoparia (KCHSC) [9]; 80 g/ha): 90%; Pre-emergence efficacy against KCHSC (Kochia scoparia (KCHSC) [11]; dosage 320 g/ha): 90%; Pre-emergence efficacy against DIGSA ([12]; 320 g/ha): 100%; Pre-emergence efficacy against STEME (Stellaria media (STEME) [13]; dosage 80 g/ha): 100%; Pre-emergence efficacy against STEME (Stellaria media (STEME) [13]; dosage 320 g/ha): 100%; Post-emergence efficacy against VERPE (Veronica persica (VERPE) [14]; 1280 g/ha): 100%
Cc1cccc(Oc2ncc(Cl)cn2)c1OS(=O)(=O)CCCC(F)(F)C(F)(F)F [Example I-69] | 90 | 100 | 100 | 90 | 100 | 100 | 90 | 90 | 90 | 100 | 100 | 100 | 100 | 90 | 100 | 90 | 90 | 90 | 100 | 100 | Post-emergence efficacy against ECHCG in % [1]: 100%; Pre-emergence efficacy against VERPE in % (Veronica persica (VERPE) [15]): 100%; Post-emergence efficacy against AMARE ([4]; 80 g/ha): 100%; Post-emergence efficacy against KCHSC in % (Kochia scoparia (KCHSC) [9]; 80 g/ha): 90%; Post-emergence efficacy against ABUTH in % ([10]; 80 g/ha): 90%; Post-emergence efficacy against VERPE (Veronica persica (VERPE) [14]; 1280 g/ha): 100%
